Experimental data published in ChEMBL document CHEMBL4308854, “Novel indole-thiazolidinone conjugates: Design, synthesis and whole-cell phenotypic evaluation as a novel class of antimicrobial agents” (Eur J Med Chem, 2018).
Values after ≈ are worked out from the molar mass of the structure shown.

How the values were obtained:
PC-3 = assay: Growth inhibition of human PC3 cells assessed as cell growth at 10^-5 M incubated for 48 hrs by sulforhodamine B assay relative to control; format: cell-based; parameters: scale not given: the % may be the effect or the level left; conditions: pc-3, 48 h, 10 µM
MCF7 = assay: Growth inhibition of human MCF7 cells assessed as cell growth at 10^-5 M incubated for 48 hrs by sulforhodamine B assay relative to control; format: cell-based; parameters: scale not given: the % may be the effect or the level left; conditions: mcf7, 48 h, 10 µM
NCI/ADR-RES = assay: Growth inhibition of human NCI/ADR-RES cells assessed as cell growth at 10^-5 M incubated for 48 hrs by sulforhodamine B assay relative to control; format: cell-based; parameters: scale not given: the % may be the effect or the level left; conditions: 10 µM
HL-60(TB) = assay: Growth inhibition of human HL-60(TB) cells assessed as cell growth at 10^-5 M incubated for 48 hrs by sulforhodamine B assay relative to control; format: cell-based; parameters: scale not given: the % may be the effect or the level left; conditions: 10 µM
UACC-257 = assay: Growth inhibition of human UACC257 cells assessed as cell growth at 10^-5 M incubated for 48 hrs by sulforhodamine B assay relative to control; format: cell-based; parameters: scale not given: the % may be the effect or the level left; conditions: uacc-257, 48 h, 10 µM
UACC-62 = assay: Growth inhibition of human UACC62 cells assessed as cell growth at 10^-5 M incubated for 48 hrs by sulforhodamine B assay relative to control; format: cell-based; parameters: scale not given: the % may be the effect or the level left; conditions: uacc-62, 48 h, 10 µM
Candida albicans = assay: Antifungal activity against Candida albicans RCMB 05036 assessed as diameter of zone inhibition after 48 hrs by agar well diffusion assay; format: functional
OVCAR-8 = assay: Growth inhibition of human OVCAR8 cells assessed as cell growth at 10^-5 M incubated for 48 hrs by sulforhodamine B assay relative to control; format: cell-based; parameters: scale not given: the % may be the effect or the level left; conditions: ovcar-8, 48 h, 10 µM
Mycolicibacterium aurum = assay: Antitubercular activity against Mycobacterium aurum infected in mouse RAW264.7 cells measured after 48 hrs; format: functional
LOX IMVI = assay: Growth inhibition of human LOXIMVI cells assessed as cell growth at 10^-5 M incubated for 48 hrs by sulforhodamine B assay relative to control; format: cell-based; parameters: scale not given: the % may be the effect or the level left; conditions: 10 µM
MDA-MB-468 = assay: Growth inhibition of human MDA-MB-468 cells assessed as cell growth at 10^-5 M incubated for 48 hrs by sulforhodamine B assay relative to control; format: cell-based; parameters: scale not given: the % may be the effect or the level left; conditions: mda-mb-468, 48 h, 10 µM
OVCAR-4 = assay: Growth inhibition of human OVCAR4 cells assessed as cell growth at 10^-5 M incubated for 48 hrs by sulforhodamine B assay relative to control; format: cell-based; parameters: scale not given: the % may be the effect or the level left; conditions: ovcar-4, 48 h, 10 µM
MDA-MB-231 = assay: Growth inhibition of human MDA-MB-231 cells assessed as cell growth at 10^-5 M incubated for 48 hrs by sulforhodamine B assay relative to control; format: cell-based; parameters: scale not given: the % may be the effect or the level left; conditions: mda-mb-231, 48 h, 10 µM
K562 = assay: Growth inhibition of human K562 cells assessed as cell growth at 10^-5 M incubated for 48 hrs by sulforhodamine B assay relative to control; format: cell-based; parameters: scale not given: the % may be the effect or the level left; conditions: k562, 48 h, 10 µM
SNB-19 = assay: Growth inhibition of human SNB19 cells assessed as cell growth at 10^-5 M incubated for 48 hrs by sulforhodamine B assay relative to control; format: cell-based; parameters: scale not given: the % may be the effect or the level left; conditions: snb-19, 48 h, 10 µM
[1] = Selectivity index, ratio of IC50 for human WI38 cells to MIC for Mycobacterium tuberculosis RCMB 010126 clinical isolate; format: toxicity; conditions: read-out: Selectivity Index
Escherichia coli [2] = assay: Potency index, ratio of ciprofloxacin MIC to compound MIC for Escherichia coli RCMB 010052; format: functional
HT-29 = assay: Growth inhibition of human HT-29 cells assessed as cell growth at 10^-5 M incubated for 48 hrs by sulforhodamine B assay relative to control; format: cell-based; parameters: scale not given: the % may be the effect or the level left; conditions: ht-29, 48 h, 10 µM
SR = assay: Growth inhibition of human SR cells assessed as cell growth at 10^-5 M incubated for 48 hrs by sulforhodamine B assay relative to control; format: cell-based; parameters: scale not given: the % may be the effect or the level left; conditions: 10 µM
Escherichia coli [3] = assay: Antibacterial activity against Escherichia coli RCMB 010052 after 24 hrs by serial dilution method; format: functional; conditions: RCMB 010052, 24 h
Staphylococcus aureus [4] = assay: Antibacterial activity against Staphylococcus aureus RCMB 010028 assessed as diameter of zone inhibition after 24 hrs by agar well diffusion assay; format: functional
HCT-116 = assay: Growth inhibition of human HCT116 cells assessed as cell growth at 10^-5 M incubated for 48 hrs by sulforhodamine B assay relative to control; format: cell-based; parameters: scale not given: the % may be the effect or the level left; conditions: hct-116, 48 h, 10 µM
A498 = assay: Growth inhibition of human A498 cells assessed as cell growth at 10^-5 M incubated for 48 hrs by sulforhodamine B assay relative to control; format: cell-based; parameters: scale not given: the % may be the effect or the level left; conditions: a498, 48 h, 10 µM
SK-MEL-2 = assay: Growth inhibition of human SK-MEL-2 cells assessed as cell growth at 10^-5 M incubated for 48 hrs by sulforhodamine B assay relative to control; format: cell-based; parameters: scale not given: the % may be the effect or the level left; conditions: sk-mel-2, 48 h, 10 µM
MDA-MB-435 = assay: Growth inhibition of human MDA-MB-435 cells assessed as cell growth at 10^-5 M incubated for 48 hrs by sulforhodamine B assay relative to control; format: cell-based; parameters: scale not given: the % may be the effect or the level left; conditions: mda-mb-435, 48 h, 10 µM
T47D = assay: Growth inhibition of human T47D cells assessed as cell growth at 10^-5 M incubated for 48 hrs by sulforhodamine B assay relative to control; format: cell-based; parameters: scale not given: the % may be the effect or the level left; conditions: 10 µM
MOLT-4 = assay: Growth inhibition of human MOLT4 cells assessed as cell growth at 10^-5 M incubated for 48 hrs by sulforhodamine B assay relative to control; format: cell-based; parameters: scale not given: the % may be the effect or the level left; conditions: molt-4, 48 h, 10 µM
[5] = Stability in mouse RAW264.7 cells measured after 48 hrs; format: ADME, cell-based; conditions: raw264.7, 48 h
SN12C = assay: Growth inhibition of human SN12C cells assessed as cell growth at 10^-5 M incubated for 48 hrs by sulforhodamine B assay relative to control; format: cell-based; parameters: scale not given: the % may be the effect or the level left; conditions: 10 µM
HOP-62 = assay: Growth inhibition of human HOP62 cells assessed as cell growth at 10^-5 M incubated for 48 hrs by sulforhodamine B assay relative to control; format: cell-based; parameters: scale not given: the % may be the effect or the level left; conditions: hop-62, 48 h, 10 µM
OVCAR-3 = assay: Growth inhibition of human OVCAR3 cells assessed as cell growth at 10^-5 M incubated for 48 hrs by sulforhodamine B assay relative to control; format: cell-based; parameters: scale not given: the % may be the effect or the level left; conditions: ovcar-3, 48 h, 10 µM
NCI-H322M = assay: Growth inhibition of human NCI-H322M cells assessed as cell growth at 10^-5 M incubated for 48 hrs by sulforhodamine B assay relative to control; format: cell-based; parameters: scale not given: the % may be the effect or the level left; conditions: 10 µM
SF-295 = assay: Growth inhibition of human SF295 cells assessed as cell growth at 10^-5 M incubated for 48 hrs by sulforhodamine B assay relative to control; format: cell-based; parameters: scale not given: the % may be the effect or the level left; conditions: sf-295, 48 h, 10 µM
HCT-15 = assay: Growth inhibition of human HCT15 cells assessed as cell growth at 10^-5 M incubated for 48 hrs by sulforhodamine B assay relative to control; format: cell-based; parameters: scale not given: the % may be the effect or the level left; conditions: hct-15, 48 h, 10 µM
NCI-H23 = assay: Growth inhibition of human NCI-H23 cells assessed as cell growth at 10^-5 M incubated for 48 hrs by sulforhodamine B assay relative to control; format: cell-based; parameters: scale not given: the % may be the effect or the level left; conditions: nci-h23, 48 h, 10 µM
Staphylococcus aureus [6] = assay: Potency index, ratio of ciprofloxacin MIC to compound MIC for Staphylococcus aureus RCMB 010028; format: functional

Row | Structure (SMILES) | Activity (PC-3) | Activity (MCF7) | Activity (NCI/ADR-RES) | Activity (HL-60(TB)) | Activity (UACC-257) | Activity (UACC-62) | diameter of the inhibition zone (DIZ) (Candida albicans) | Activity (OVCAR-8) | MIC (Mycolicibacterium aurum) | Activity (LOX IMVI) | Activity (MDA-MB-468) | Activity (OVCAR-4) | Activity (MDA-MB-231) | Activity (K562) | Activity (SNB-19) | selectivity ratio [1] | Ratio (Escherichia coli [2]) | Activity (HT-29) | Activity (SR) | MIC (Escherichia coli [3]) | also measured
1 | CCOC(=O)c1sc(/N=C2\NC(=O)/C(=C3/C(=O)N(Cc4ccccc4)c4ccc(Cl)cc43)S2)nc1C | 91.84% | 97.06% | 101.26% | 105.41% | 106.14% | 103.68% | 21.7 mm | 103.48% | 50 µg/mL (≈ 92.8 µM) | 96.03% | 108.31% | 110.06% | 100.41% | 101.93% | 103.82% | 133 | 2 | 100.13% | 102.18% | 0.98 µg/mL (≈ 1.82 µM) | diameter of the inhibition zone (DIZ) (Staphylococcus aureus [4]): 22.5 mm; Activity (HCT-116): 96.07%; Activity (A498): 104.48%; Activity (SK-MEL-2): 100.66%; Activity (MDA-MB-435): 107.3%; Activity (T47D): 96.84%; Activity (MOLT-4): 97.7%; Stability [5]: Stable; Activity (SN12C): 102.35%; Activity (HOP-62): 98.01%; Activity (OVCAR-3): 105.46%; Activity (NCI-H322M): 111.22%; Activity (SF-295): 103.03%; Activity (HCT-15): 100.31%; Activity (NCI-H23): 96.32%; Ratio (Staphylococcus aureus [6]): 2
2 | CC(=O)c1sc(/N=C2\NC(=O)/C(=C3/C(=O)N(C)c4ccc(Cl)cc43)S2)nc1C | 96.23% | 86.13% | 99.92% | 98.79% | 114.2% | 84.61% | 24.1 mm | 117.64% | 25 µg/mL (≈ 57.7 µM) | 88.14% | 94.2% | 94.35% | 91.15% | 100.75% | 98.6% | 50 | 4 | 98.45% | 115.03% | 0.49 µg/mL (≈ 1.13 µM) | diameter of the inhibition zone (DIZ) (Staphylococcus aureus [4]): 22.4 mm; Activity (HCT-116): 94.04%; Activity (A498): 104.41%; Activity (SK-MEL-2): 99.78%; Activity (MDA-MB-435): 101.04%; Activity (T47D): 106.34%; Activity (MOLT-4): 105.36%; Stability [5]: Stable; Activity (SN12C): 96.85%; Activity (HOP-62): 116.23%; Activity (OVCAR-3): 96.17%; Activity (NCI-H322M): 96.29%; Activity (SF-295): 101.25%; Activity (HCT-15): 101.97%; Activity (NCI-H23): 96.3%; Ratio (Staphylococcus aureus [6]): 2
